Article PMC10348910, “Epigenetic reprogramming of cell cycle genes by ACK1 promotes breast cancer resistance to CDK4/6 inhibitor” (Oncogene, 2023)

Legend:
[1] = system: pY88-H4; assay: immunoprecipitation and immunoblotting for pY88-H4; assay type: cell-based; conditions: breast cancer cell lines; overnight
Experimental: Fig. 4 ACK1 epigenetically modifies the chromatin landscape by depositing pY88-H4 activating marks, regulating cell cycle genes. A Breast cancer cell lines were treated with (R)-9b overnight and the cell lysates were subjected to immunoprecipitation using pY88-H4 antibody, followed by immunoblotting with H4 antibody. Lysates were also subjected to immunoblotting with total H4 and Actin antibodies, shown in the lower panels. […] B Venn diagrams summarizing the overlap between sites bound by pY88-H4 in vehicle treated and (R)-9b treated MDA-MB-453 cells. […] Breast cancer cells were subjected to ChIP using pY88-H4 antibody followed by qPCR for (D) CCNB1, (E) CCNB2, and (F) CDC20 genes. For (A), representative images of three independent experiments are shown. For (D–F), data are represented as the mean ± SEM. *p < 0.05, **p < 0.01, ***p < 0.001, unpaired two-tailed Student’s t test.
Vehicle or (R)-9b (5 µM, overnight in serum free media) treated cells were lysed by sonication in receptor lysis buffer (RLB) and lysates were fractionated by SDS-PAGE, and transferred onto a PVDF membrane (Immobilon). […]

[2] = system: MCF7 xenografts; assay: MCF7 xenograft in mammary fat pad; assay type: in vivo, female SCID mice; conditions: orally 36 mg/Kg or subcutaneously 24 mg/Kg
Experimental: Fig. 6 (R)-9b inhibits breast cancer xenograft tumor growth in vivo. A 2 × 10^6 Cal-148 cells were injected in the 4th inguinal mammary fat pad of female SCID mice. Once the tumors were palpable, the mice were treated subcutaneously with either vehicle (Captisol; n = 8) or (R)-9b at 24 mg/Kg (n = 8) five times a week, for 4 weeks. The tumor volumes were measured twice a week. B, C The tumors were harvested and photographed, and the weights were recorded. D RNA was prepared from the tumors, followed by qRT-PCR to determine the levels of CCNB1, CCNB2 and CDC20 mRNA (n = 3 each). E and F 2 × 10^6 MCF7 cells were injected in the 4th inguinal mammary fat pad of female SCID mice with continuous supplementation of estrogen. Once the tumors were palpable, the mice were treated with vehicle (Captisol; n = 7), (R)-9b at 24 mg/Kg subcutaneously (n = 8), or orally with (R)-9b at 36 mg/Kg (n = 8), five times a week, for 4 weeks. The tumors were harvested, their weights were recorded and photographed. G Tumor lysates were subjected to immunoblotting using pACK1, CCNB1, CCNB2, CDC20 and Actin antibodies (n = 3 each). H RNA was prepared from the tumors, followed by qRT-PCR to determine the levels of CCNB1, CCNB2 and CDC20 mRNA (n = 3 each). Data are represented as the mean ± SEM. *p < 0.05; **p < 0.01; ***p < 0.001. For (C) and (D), unpaired two-tailed Student’s t test, and for (E) and (H), one way ANOVA was performed.
In addition, effect of (R)-9b was assessed in ER^+/PR^+ breast cancer xenografts. Briefly, MCF7 cells were implanted in mammary fat pad of female SCID mice. Once the tumors were palpable, the mice were treated orally (36 mg/Kg) or injected subcutaneously with 24 mg/Kg of (R)-9b for 4 weeks. […] Further, RNA was isolated from the xenograft tumors and CDC20, CCNB1 and CCNB2 mRNA levels were examined.
All animal experiments were performed using the standards for humane care in accordance with the NIH Guide for the Care and Use of Laboratory Animals. […] Tumor volumes were measured twice a week using calipers. […]

[3] = system: luciferase expressing 4T1 cells; assay: orthotopic lung metastasis study; assay type: in vivo, female Balb/c mice; conditions: 24 mg/kg subcutaneously, 2 weeks
Experimental: In addition, we performed fluorescent imaging on mice orthotopically injected with luciferase expressing 4T1 cells (5 × 10^5). Two weeks after inoculation into the mammary fat pads, mice were subcutaneously injected with vehicle (6% Captisol) or (R)-9b (24 mg/kg) five times a week for 2 weeks. Mice were then administered an intraperitoneal injection of D-luciferin, lungs were excised and imaged for metastases.
Female Balb/c mice were orthotopically injected with luciferase expressing 4T1 cells (5 × 10^5). Two weeks after inoculation into the 5th mammary fat pads, mice were subcutaneously injected with vehicle (6% captisol) or (R)-9b (24 mg/Kg) five times a week, for 2 weeks. Mice were then intraperitoneally injected with D-luciferin, humanely euthanized, lungs were excised and assessed for metastases using both fluorescent in vivo imaging system and H&E staining.

[4] = plasma protein binding in human plasma

remaining after 6 h of treatment ([4]; 6 h): over 96%
fraction unbound ([4]; human, plasma, Plasma Protein Binding (PPB)): 0.17
SMILES: CN1CCN(c2ccc(Nc3ncc(Cl)c(NC[C@H]4CCCO4)n3)cc2)CC1 [(R)-9b]
pY88-H4 epigenetic marks (immunoblot) [1]: significantly compromised
CDC20, CCNB1 and CCNB2 mRNA levels in tumors [2]: significant reduction
CDC20, CCNB1 and CCNB2 protein levels in tumor lysates [2]: marked decrease
xenograft tumor growth ([2]; 4 weeks): significant loss of tumor growth
lung tumor nodules (H&E) [3]: absent
lung luminescence (photons/sec) ([3]; five times a week): significant decrease
